This note sets out measurements from publication PMC4669708 (Cell Death & Disease, 2015).

Assay [1] has as its system FADD-deficient Jurkat cells. The experiment in a line: TNF-α-induced necroptosis, cell viability (CellTiter Glo). The assay is classed as cell-based, human. As to conditions: for prevention of necroptotic cell death: dose range, Figure 2a, b; for EC50: CellTiter Glo, read-out: EC50 for inhibiting necroptosis. The protocol: (§1) Cells were seeded in 12-, 24- or 96-well plates at proper cell density. For necroptosis or apoptosis assays, cells were incubated with the indicated compound combinations at concentrations stated for 14–24 h. Smac mimetic and z-VAD-FMK were added 30–60 min before treatment with TNF-α, FasL or TRAIL. Cell viability was determined using CellTiter Glo Luminescent Cell Viability Assay (Promega, Fitchburg, WI, USA) according to the manufacturer's instructions. Luminescence was recorded with a SpectraMax M5Multimode plate reader (Molecular Devices, Sunnyvale, CA, USA). For flow cytometry-based determination of viability, cells were harvested, collected by centrifugation, washed once and resuspended in staining buffer (1 × PBS, 10% FBS). Cells were incubated with 0.5 μg/ml PI for 10 min at room temperature (RT) in the dark. Flow cytometric analyses were performed on an LSR Fortessa (BD Biosciences) and analyzed with FlowJo software version 7.6.3 (Tree Star Inc, Ashland, OR, USA). Cell size was evaluated by forward scatter. PI-negative normal-sized cells were considered living and data were normalized to values of untreated controls.
The compounds were transferred into drug plates by acoustic droplet ejection using an Echo 520 liquid handler (LABCYTE, Sunnyvale, CA, USA). Necroptosis was induced in FADD-deficient Jurkat cells by addition of 10 ng/ml TNF-α immediately before seeding onto drug plates at a density of 1x10^4 cells/well. After 16 h incubation, cell viability was determined using CellTiter Glo Luminescent Cell Viability Assay according to manufacturer's instructions. Data analysis was performed by calculating a percentage of control to normalize for variability across different plates. The signal for the negative control DMSO wells was set to 0%, whereas the wells containing the positive control Nec-1 were put to 100% for each plate individually.
In general terms: Cellular ATP, detected with luciferase, serves as a proxy for viable cell number.

For assay [2], the system named is HT-29 cells. Nature of the assay: TNF-α/Smac mimetic/z-VAD-FMK (TSZ)-induced necroptosis, cell viability. It is filed as cell-based, human. As to conditions: for rescue of TSZ-induced necroptotic cell death: compounds 1 μM, 20 ng/ml TNF-α, 500 nM Smac mimetic, 20 μM z-VAD overnight. As to the method:
as §1

Assay [3] concerns HT-29 MLKL S358D cells. The experiment in a line: Cell death driven by doxycycline-induced MLKL S358D expression. The assay is classed as cell-based, human. As to conditions: 2 μg/ml doxycycline overnight; 10 μM NSA, 0.5 μM ponatinib. The protocol: as §1, with “controls. For detection of apoptosis, cells were resuspended in Annexin V Binding Buffer (BioLegend, San Diego, CA, USA) and stained with 0.5 μg/ml PI and Alexa Fluor 647 Annexin V (BioLegend) according to manufacturer's instructions.” for “controls.”

Assay [4] deals with RIPK3 (Homo sapiens, UniProt Q9Y572). The experiment in a line: Recombinant kinase assay. On the set-up: purchased Signalchem R09-10G. The assay is classed as biochemical. The protocol:
(§2) Recombinant RIPK1 or RIPK3 protein was incubated with the substrate MBP in kinase assay buffer (40 mM Tris-HCl pH 7.5, 10 mM MgCl2 and 1 mM DTT) in presence of 50 μM ATP, 5 μCi [γ-32 P]ATP and the indicated inhibitors in a total volume of 20 μl. […] The terminated reactions were spotted onto a SAM2 Biotin Capture membrane (Promega) and further processed according to the manufacturer's instructions. […] Data were normalized to a DMSO-treated control sample. For autoradiography, the reactions were stopped by addition of 5 μl 4x Laemmli buffer and incubated for 5 min at 95 °C.

Assay [5] relates to HT-29 cells. The experiment in a line: TRAIL- or FasL-induced necroptosis with Smac mimetic and z-VAD. It is filed as cell-based, human. The conditions noted are these: 0.5 μM ponatinib, 5 μM pazopanib. As to the method:
as §1, with “controls. For detection of apoptosis, cells were resuspended in Annexin V Binding Buffer (BioLegend, San Diego, CA, USA) and stained with 0.5 μg/ml PI and Alexa Fluor 647 Annexin V (BioLegend) according to manufacturer's instructions.” for “controls.”

The subject of assay [6] is Jurkat E6.1 cells. Nature of the assay: FasL-induced apoptosis, cell viability. As to conditions: 100 ng/ml human FasL, 24 h; 0.5 μM ponatinib, 5 μM pazopanib. The assay is classed as cell-based. The protocol: as §1, with “controls. For detection of apoptosis, cells were resuspended in Annexin V Binding Buffer (BioLegend, San Diego, CA, USA) and stained with 0.5 μg/ml PI and Alexa Fluor 647 Annexin V (BioLegend) according to manufacturer's instructions.” for “controls.”

Assay [7] deals with 3T3-SA cells. The experiment in a line: TNF-α/z-VAD (TZ)-induced necroptosis. It is filed as cell-based, murine. The conditions noted are these: Supplementary Figures 3a, b. As to the method:
as §1, with “controls. For detection of apoptosis, cells were resuspended in Annexin V Binding Buffer (BioLegend, San Diego, CA, USA) and stained with 0.5 μg/ml PI and Alexa Fluor 647 Annexin V (BioLegend) according to manufacturer's instructions.” for “controls.”

In assay [8] the target is T1, recombinant RIPK1 (Homo sapiens, UniProt Q13546).
T1 construct: purchased Signalchem R07-10G
T1 sequence (Q13546 1-327 limits assumed): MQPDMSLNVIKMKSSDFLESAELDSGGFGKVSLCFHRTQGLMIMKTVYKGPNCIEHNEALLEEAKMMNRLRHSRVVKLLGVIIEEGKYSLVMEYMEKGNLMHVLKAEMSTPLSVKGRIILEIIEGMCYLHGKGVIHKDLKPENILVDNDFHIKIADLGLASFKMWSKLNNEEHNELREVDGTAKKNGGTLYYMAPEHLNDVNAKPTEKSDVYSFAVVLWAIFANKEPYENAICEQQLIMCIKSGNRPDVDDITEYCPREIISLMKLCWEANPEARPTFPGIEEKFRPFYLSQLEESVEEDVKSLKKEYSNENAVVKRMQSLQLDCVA
Nature of the assay: Recombinant kinase assay. The assay is classed as biochemical. The conditions noted are these: 50 μM ATP; Supplementary Figure 4b. The protocol:
as §2

Chain of RIPK3 (Q9Y572 whole entry): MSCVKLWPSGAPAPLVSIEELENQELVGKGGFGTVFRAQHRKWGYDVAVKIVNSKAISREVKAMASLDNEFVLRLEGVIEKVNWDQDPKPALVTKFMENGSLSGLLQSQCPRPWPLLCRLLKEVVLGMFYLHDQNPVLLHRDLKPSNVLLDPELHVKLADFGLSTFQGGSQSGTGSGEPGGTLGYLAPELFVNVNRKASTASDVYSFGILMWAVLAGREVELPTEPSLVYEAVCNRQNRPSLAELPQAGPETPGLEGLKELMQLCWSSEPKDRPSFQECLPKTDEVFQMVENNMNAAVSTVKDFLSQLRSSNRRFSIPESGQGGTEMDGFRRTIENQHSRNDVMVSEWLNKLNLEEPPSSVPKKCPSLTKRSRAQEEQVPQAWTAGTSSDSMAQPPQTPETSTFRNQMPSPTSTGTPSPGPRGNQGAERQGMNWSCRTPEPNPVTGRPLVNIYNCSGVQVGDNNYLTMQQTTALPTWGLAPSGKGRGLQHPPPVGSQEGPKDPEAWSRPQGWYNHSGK

For the compound `Cc1cn(-c2cc(NC(=O)c3ccc(C)c(Nc4nccc(-c5cccnc5)n4)c3)cc(C(F)(F)F)c2)cn1` [nilotinib], the “prevention of necroptotic cell death” value in assay [1] (10 ng/ml TNF-α overnight) was “none of the other drugs prevented necroptotic cell death”. Moreover, the “rescue of TSZ-induced necroptotic cell death” value in assay [2] was “neither of the other four BCR-ABL inhibitors nor vandetanib did”.

Regarding `COc1nccnc1NS(=O)(=O)c1ccc(NC(=O)/C=C/c2ccc([N+](=O)[O-])s2)cc1` [NSA, necrosulfonamide], the “block of cell death driven by MLKL S358D expression” value in assay [3] is on record as “could be blocked”.

For `Cc1nc(Nc2ncc(C(=O)Nc3c(C)cccc3Cl)s2)cc(N2CCN(CCO)CC2)n1` [dasatinib], the “prevention of necroptotic cell death” value in assay [1] (10 ng/ml TNF-α overnight) is given as “showed a modest effect but only at drug concentrations high enough to induce toxicity”. Also, in assay [2], the “rescue of TSZ-induced necroptotic cell death” value is recorded as “neither of the other four BCR-ABL inhibitors nor vandetanib did”. The “RIPK3 kinase activity (MBP phosphorylation)” value in assay [4] (50 μM ATP, Figure 4e inhibitors at 10 μM) is given as “interfered with RIPK3 activity”.

In the case of `Cc1ccc(NC(=O)c2ccc(CN3CCN(C)CC3)cc2)cc1Nc1nccc(-c2cccnc2)n1` [imatinib], the “prevention of necroptotic cell death” value in assay [1] (10 ng/ml TNF-α overnight) is “none of the other drugs prevented necroptotic cell death”. In addition, in assay [2], the “rescue of TSZ-induced necroptotic cell death” value is on record as “neither of the other four BCR-ABL inhibitors nor vandetanib did”.

Regarding “5-[[4-[(2,3-dimethyl-2H-indazol-6-yl)methylamino]-2-pyrimidinyl]amino]-2-methyl-b enzenesulfonamide [pazopanib]”, the EC50 (commonly the concentration needed to bring the measured effect to its halfway point) worked out at 254 nM in assay [1] (10 ng/ml TNF-α overnight) and 873 nM in assay [2] (TSZ treatment, read-out: EC50 (necroptosis block)). Further, the “rescue of cell viability in drug screen” value in assay [1] (0.5 and 1.5 μM, 10 ng/ml TNF-α overnight) is “robustly rescued cell viability at both concentrations”. The “rescue of TSZ-induced necroptotic cell death” value in assay [2] is given as “rescued”. Also, in assay [5] (200 ng/ml TRAIL + 500 nM Smac mimetic + 20 μM z-VAD), the “block of TRAIL-induced cell death” value is given as “similarly blocked”. The “block of FasL-induced necroptotic cell death” value in assay [5] (200 ng/ml human FasL + 500 nM Smac mimetic + 20 μM z-VAD) is recorded as “similarly blocked”. In addition, the “inhibition of apoptotic cell death triggered by FasL” value in assay [6] is given as “none of the drugs inhibited apoptotic cell death”. For the same compound, the “block of necroptotic cell death” value in assay [7] is “capable of blocking necroptotic cell death with comparable potency”. Moreover, the “block of cell death driven by MLKL S358D expression” value in assay [3] is “did not block MLKL S358D-driven necroptosis”. In addition, in assay [8], the “RIPK1 kinase activity (MBP phosphorylation)” value is “inhibiting RIPK1 kinase activity”.

As for `CN1C(=O)NC(Cc2c[nH]c3c(Cl)cccc23)C1=O` (stereo not shown) [Nec-1s, 7-Cl-O-Nec-1], in assay [1] (10 ng/ml TNF-α overnight), the EC50 stood at 238 nM. Moreover, the RIPK3 autophosphorylation entry in assay [4] (autoradiography, Supplementary Figure 4c) was “showed no effect”.

As for `COc1cc(Nc2c(C#N)cnc3cc(OCCCN4CCN(C)CC4)c(OC)cc23)c(Cl)cc1Cl` [bosutinib], the “prevention of necroptotic cell death” value in assay [1] (10 ng/ml TNF-α overnight) is “none of the other drugs prevented necroptotic cell death”. Besides, in assay [2], the “rescue of TSZ-induced necroptotic cell death” value is “neither of the other four BCR-ABL inhibitors nor vandetanib did”.

In the case of `COc1cc(O)c2c(c1)/C=C/C[C@H](O)[C@H](O)C(=O)/C=C\C[C@H](C)OC2=O` [TAK1 inhibitor], the protection to necroptosis entry in assay [1] (Supplementary Figures 6b, c) is recorded as “not able to confer protection to necroptosis”.

Consider `COc1cc2c(Nc3ccc(Br)cc3F)ncnc2cc1OCC1CCN(C)CC1` [vandetanib], for which, in assay [1] (10 ng/ml TNF-α overnight), the “prevention of necroptotic cell death” value was “did not confer protection”. Besides, in assay [2], the “rescue of TSZ-induced necroptotic cell death” value was “neither of the other four BCR-ABL inhibitors nor vandetanib did”.
